Experimental data published in publication PMC10349806 (Nature Communications, 2023).
Where “and” joins values, the source holds several entries; their conditions need not be identical. Equal values may be shown once.

What was measured:
[1] = test system: PfCRT variant E207V; assay: CQ uptake assay, oocytes expressing E207V; format: cell-based, Plasmodium falciparum
Method: (§1) Site-directed mutagenesis of PfCRT^Dd2 was performed as described using the megaprimer method with overlap extension[21],[54]. The primer pairs used are listed in Supplementary Table 6. Please note that a codon-optimized and oocyte-adapted version of PfCRT^Dd2 was used[22] (Supplementary Fig. 16). The resulting DNA fragment was cloned into the SP64T expression vector and verified by sequencing.
(§2) Oocytes were obtained as described previously. Briefly, adult (>2 years old) female X. laevis frogs (NASCO) were anesthetized in a cooled solution of ethyl 3-amino benzoate methanesulfonate (0.1%, w/v), followed by a surgical removal of parts of the ovary. The ovary lobes were carefully dissected and small pieces of oocytes were incubated in Ca^2+-free ND96 buffer (96 mM NaCl, 2 mM KCl, 1 mM MgCl2 buffered with 5 mM HEPES/NaOH, pH 7.5) supplemented with collagenase D (0.1%, w/v; Roche), BSA (0.5%, w/v), and 9 mm Na2HPO4 at 18 °C for 14-16 h while gentle shaking. After incubation, the oocytes were carefully washed several times with ND96 buffer (96 mM NaCl, 2 mM KCl, 1.8 mM CaCl2, 1 mM MgCl2 buffered with 5 mM HEPES/NaOH, pH 7.5) supplemented with 100 mg l^−1 gentamycin). Defolliculated and healthy-looking stage V-VI oocytes were manually selected for RNA microinjection. The RNA was generated as following: The codon-optimized sequences of PfCRT variants were cloned into the pSP64T expression vector. After vector linearization using the restriction endonucleases BamHI or SalI (New England Biolabs), transcription was performed using the in vitro SP6 mMessage mMachine Kit (Ambion)[34]. The obtained RNA was kept at −80 °C and diluted with nuclease-free water to a concentration of 0.6 μg μl^−1. Precision-bore glass capillary tubes (3.5-inch glass capillaries; Drummond Scientific Co.) were pulled on a vertical puller (P-87 Flaming/Brown micropipette puller, Sutter Instrument Co.), graduated, and placed on a microinjector (Nanoject II Auto-Nanoliter Injector, Drummond Scientific Co.). 50 nl of nuclease-free water alone (control oocytes) or 50 nl of 0.6 μg μl^−1 RNA were injected under stereomicroscopic control. Injected oocytes were incubated for 46–72 h at 18 °C with twice-daily buffer changes before usage in experiments.
(§3) Drug uptake assays were performed as described previously[21],[22],[24],[34]. […] The direction of radio-labeled drug transport is here from the mostly acidic extracellular solution (pH 4.5 or 6.0, as indicated) into the oocyte cytosol (pH ∼ 7.2), which corresponds to the efflux of drug from the acidic digestive vacuole (pH 5.2) into the parasite cytoplasm (pH 7.2). The topology of PfCRT in the oolemma is such that both the N- and C-terminus face the extracellular milieu[3],[22]. In the parasite, the N- and C-terminus face the lumen of the digestive vacuole. CQ uptake kinetics were performed by incubating oocytes in ND96 buffer adjusted to a pH of 4.5, 5.0, 5.5, or 6.0 and supplemented with 50 nM [^3H]CQ and one of 7 different CQ concentrations (10 µM, 50 µM, 100 µM, 200 µM, 300 µM, 400 µM, 500 µM CQ). The reaction was stopped at the 60 min time point, which is in the linear uptake range[22],[34] (Supplementary Fig. 17). For determination of the amount of drug uptake for each oocyte, the reaction medium was removed and the oocytes were washed three times with 2 ml of ice-cold ND96 buffer. Each oocyte was individually transferred to a scintillation vial containing 5% sodium dodecyl sulfate (200 μl) for lysis. The radioactivity of each sample was measured using a liquid scintillation analyzer Tri-Carb 4910 TR (PerkinElmer). Oocytes that were injected with water instead of RNA were analyzed in parallel, representing the uptake of a drug by diffusion and/or endogenous permeation pathways. The resulting value represents the “background“ level of drug accumulation in oocytes (in-depth discussion in[22]). […]

[2] = test system: PfCRT variant E207G; assay: CQ uptake assay, oocytes expressing E207G; format: cell-based, Plasmodium falciparum
Method: as §1, §2, §3

[3] = pKa values of the drugs (literature); format: physicochemical; conditions: between pH 4.5 and 6.0
[4] = E207V, 50 µM CQ, 1 h, mean ± SEM
[5] = pH 4.5, individual replicates, Fig 6b
[6] = pH 6.0, individual replicates, Fig 6b
[7] = ratio of activity pH 4.5 / pH 6.0
[8] = E207G, 50 µM CQ, 1 h, mean ± SEM

CCN(CC)CCCC(C)Nc1ccnc2cc(Cl)ccc12 (stereo not shown) [CQ, chloroquine]
Activity at pH 4.5 [1, 4]: 2.0 ± 0.13 pmol h-1 oocyte-1 | Activity at pH 6.0 [1, 4]: 2.09 ± 0.15 pmol h-1 oocyte-1 | R-value ([1]; E207V, CQ transport at pH 4.5 / pH 6.0): 0.96 ± 0.02 | E207V transport activity pH 4.5 [1, 5]: 2.33 pmol oocyte-1 h-1 and 1.85 pmol oocyte-1 h-1 and 1.83 pmol oocyte-1 h-1 | E207V transport activity pH 6.0 [1, 6]: 2.45 pmol oocyte-1 h-1 and 1.85 pmol oocyte-1 h-1 and 1.96 pmol oocyte-1 h-1 | E207V R-value [1, 7]: 0.95 and 1.00 and 0.93 | Activity at pH 4.5 [2, 8]: 2.26 ± 0.46 pmol h-1 oocyte-1 | Activity at pH 6.0 [2, 8]: 2.55 ± 0.15 pmol h-1 oocyte-1 | R-value ([2]; E207G, CQ transport at pH 4.5 / pH 6.0): 0.88 ± 0.06 | E207G transport activity pH 4.5 [2, 5]: 2.31 pmol oocyte-1 h-1 and 2.79 pmol oocyte-1 h-1 and 1.67 pmol oocyte-1 h-1 | E207G transport activity pH 6.0 [2, 6]: 2.70 pmol oocyte-1 h-1 and 2.76 pmol oocyte-1 h-1 and 2.19 pmol oocyte-1 h-1 | E207G R-value [2, 7]: 0.86 and 1.01 and 0.76 | molecules being di-protonated [3]: > 99%
